Assays:
[1] = target: PDGFRβ (purified cytoplasmic domain PDGFR-b protein) (Homo sapiens (Human), UniProt P09619); assay: PDGFRβ Kinase Assay; assay type: biochemical; settings: for IC50: 36 μM ATP, poly-Glu-Tyr (4:1) substrate, ELISA read-out, read-out: PDGFRβ Enzyme Assay (IC50 nM)
Procedure: Biochemical PDGFRβ kinase assays were performed in 96 well microtiter plates that were coated overnight with 75 μg of poly-Glu-Tyr (4:1) in 10 mM Phosphate Buffered Saline (PBS), pH 7.4. The coated plates were washed with 2 mls per well PBS+0.05% Tween-20 (PBS-T), blocked by incubation with PBS containing 1% BSA, then washed with 2 mls per well PBS-T prior to starting the reaction. Reactions were carried out in 100 μL reaction volumes containing 36 μM ATP in kinase buffer (50 mM Hepes buffer pH 7.4, 20 mM MgCl2, 0.1 mM MnCl2 and 0.2 mM Na3VO4). Test compounds were reconstituted in 100% DMSO and added to the reaction to give a final DMSO concentration of 5%. Reactions were initiated by the addition 20 ul per well of kinase buffer containing 200-300 ng purified cytoplasmic domain PDGFR-b protein (Millipore). Following a 60 minute incubation at 30° C., the reactions were washed 2 mls per well PBS-T. 100 μl of a monoclonal anti-phosphotyrosine antibody-peroxidase conjugate diluted 1:10,000 in PBS-T was added to the wells for 30 minutes. Following a 2 mls per well wash with PBS-Tween-20, 100 μl of O-Phenylenediamine Dihydrochloride in phosphate-citrate buffer, containing urea hydrogen peroxide, was added to the wells for 7-10 minutes as a colorimetric substrate for the peroxidase. The reaction was terminated by the addition of 100 μl of 2.5N H2SO4 to each well and read using a microplate ELISA reader set at 492 nm. IC50 values for compound inhibition were calculated directly from graphs of optical density (arbitrary units) versus compound concentration following subtraction of blank values.

[2] = target: PDGFRβ (Homo sapiens (Human), UniProt P09619); assay: PDGFRβ Cellular Assay (FLIPR, PDGF-induced intracellular calcium in NHDF-Ad); assay type: cell-based; settings: PDGF-BB stimulation (30 ng/mL), Fluo-4 FLIPR
Sequence of PDGFRβ (P09619 33-1106): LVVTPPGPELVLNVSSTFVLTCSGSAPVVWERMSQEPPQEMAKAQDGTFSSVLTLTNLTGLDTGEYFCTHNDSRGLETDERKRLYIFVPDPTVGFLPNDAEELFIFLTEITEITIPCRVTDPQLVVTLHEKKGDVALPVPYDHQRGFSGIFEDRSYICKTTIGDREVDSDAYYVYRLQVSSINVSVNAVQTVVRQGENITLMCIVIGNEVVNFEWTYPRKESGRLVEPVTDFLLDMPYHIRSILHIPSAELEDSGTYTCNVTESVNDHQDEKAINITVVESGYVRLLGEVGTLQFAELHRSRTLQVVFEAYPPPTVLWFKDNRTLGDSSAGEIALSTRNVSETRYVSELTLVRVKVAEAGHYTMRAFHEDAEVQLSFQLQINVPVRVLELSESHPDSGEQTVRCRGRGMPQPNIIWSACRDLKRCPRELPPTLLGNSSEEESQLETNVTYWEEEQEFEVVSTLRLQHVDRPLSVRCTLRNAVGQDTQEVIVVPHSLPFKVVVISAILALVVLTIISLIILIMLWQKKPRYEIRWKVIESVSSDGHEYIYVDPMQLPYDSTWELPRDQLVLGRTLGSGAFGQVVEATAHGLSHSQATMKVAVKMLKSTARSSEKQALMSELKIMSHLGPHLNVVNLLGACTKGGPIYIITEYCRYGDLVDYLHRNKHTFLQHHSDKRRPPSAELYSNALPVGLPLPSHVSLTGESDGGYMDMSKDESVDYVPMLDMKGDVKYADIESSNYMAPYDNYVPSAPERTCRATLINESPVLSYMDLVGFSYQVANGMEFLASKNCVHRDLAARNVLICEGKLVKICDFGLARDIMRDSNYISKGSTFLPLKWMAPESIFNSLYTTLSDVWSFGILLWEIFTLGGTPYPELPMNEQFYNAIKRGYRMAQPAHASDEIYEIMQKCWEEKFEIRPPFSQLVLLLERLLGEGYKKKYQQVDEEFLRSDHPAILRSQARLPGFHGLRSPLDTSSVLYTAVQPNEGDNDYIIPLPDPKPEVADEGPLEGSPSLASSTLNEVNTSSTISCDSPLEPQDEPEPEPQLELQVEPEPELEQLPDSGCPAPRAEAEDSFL
Procedure: Automated FLIPR (Fluorometric Imaging Plate Reader) technology was used to screen for inhibitors of PDGF-induced increases in intracellular calcium levels in fluorescent dye loaded […] cells. NHDF-Ad (Normal Human Dermal Fibroblasts, Adult; Lonza) were seeded in 384-well fibronectin coated black-walled plates overnight @ 37° C./5% CO2. Cells were loaded with calcium indicator Fluo-4 for 45 minutes at 37° C. Cells were washed 2 times (E1×405, Biotek Instruments) to remove extracellular dye. For screening, cells were pre-incubated with test agents for 30 minutes, at a single concentration (10 uM) or at concentrations ranging from 0.0001 to 10.0 uM followed by PDGF-BB stimulation (30 ng/mL). Changes in fluorescence at 516 nm were measured simultaneously in all 384 wells using a cooled CCD camera. Data were generated by determining max-min fluorescence levels for unstimulated, stimulated, and drug treated samples. IC50 values for test compounds were calculated from % inhibition of PDGF-BB stimulated responses in the absence of inhibitor.

Sequence of PDGFRβ (purified cytoplasmic domain PDGFR-b protein) (P09619 554-1106): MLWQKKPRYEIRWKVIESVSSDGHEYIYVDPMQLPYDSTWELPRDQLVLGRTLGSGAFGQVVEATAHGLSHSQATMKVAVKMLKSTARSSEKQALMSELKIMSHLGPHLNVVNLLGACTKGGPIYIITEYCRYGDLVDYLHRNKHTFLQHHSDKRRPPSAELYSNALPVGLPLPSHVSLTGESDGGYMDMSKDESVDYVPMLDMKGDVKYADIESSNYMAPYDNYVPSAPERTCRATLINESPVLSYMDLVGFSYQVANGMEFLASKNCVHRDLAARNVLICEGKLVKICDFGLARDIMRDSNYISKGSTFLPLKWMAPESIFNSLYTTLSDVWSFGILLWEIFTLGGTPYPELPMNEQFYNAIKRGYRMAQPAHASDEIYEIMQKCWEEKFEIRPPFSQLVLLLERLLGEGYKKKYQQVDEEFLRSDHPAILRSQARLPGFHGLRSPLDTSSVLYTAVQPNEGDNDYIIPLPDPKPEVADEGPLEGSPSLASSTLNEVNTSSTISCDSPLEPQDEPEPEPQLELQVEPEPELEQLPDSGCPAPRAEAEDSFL

activity/potency at the PDGFRβ receptor (in words) [1] | IC50 [1] [nM] | IC50 [2] [nM] | Compound
greatest potency | – | – | Cc1ccoc1C(=O)Nc1cccc(C#Cc2cncc(C(=O)N=S3(=O)CCN(C(N)=O)CC3)c2)c1 [Example 3, 1-({[5-({3-[(3-Methyl-2-furoyl)amino]phenyl}ethynyl)pyridin-3-yl]carbonyl}imino)-1λ^4,4-thiazinane-4-carboxamide 1-oxide]
greatest potency | – | – | CCOC(=O)CNC(=O)N1CCS(=O)(=NC(=O)c2cncc(C#Cc3cccc(NC(=O)c4occc4C)c3)c2)CC1 [Example 11, Ethyl({[1-({[5-({3-[(3-methyl-2-furoyl)amino]phenyl}ethynyl)pyridin-3-yl]carbonyl}imino)-1-oxido-1λ^4,4-thiazinan-4-yl]carbonyl}amino)acetate]
greatest potency | – | – | Cc1ccoc1C(=O)Nc1cccc(C#Cc2cc(C(=O)N=S3(=O)CCN(C(=O)OC(C)(C)C)CC3)cnc2N)c1 [Example 13, tert-Butyl 1-({[6-amino-5-({3-[(3-methyl-2-furoyl)amino]phenyl}ethynyl)pyridin-3-yl]carbonyl}imino)-1λ^4,4-thiazinane-4-carboxylate 1-oxide]
greatest potency | – | – | Cc1ccc(F)c(C(=O)Nc2cccc(C#Cc3cc(C(=O)N=S4(=O)CCN(C(=O)OC(C)(C)C)CC4)cnc3N)c2)c1 [Example 16, tert-butyl 1-({[6-Amino-5-({3-[(2-fluoro-5-methylbenzoyl)amino]phenyl}ethynyl)pyridin-3-yl]carbonyl}imino)-1λ^4,4-thiazinane-4-carboxylate 1-oxide]
greatest potency | 7 | – | Cc1ccc(F)c(C(=O)Nc2cccc(C#Cc3cc(C(=O)N=S4(=O)CCNCC4)cnc3N)c2)c1 [Example 17, 6-Amino-5-({3-[(2-fluoro-5-methylbenzoyl)amino]phenyl}ethynyl)-N-(1-oxido-1λ^4,4-thiazinan-1-ylidene)nicotinamide]
– | 7 | – | Cc1ccc(F)c(C(=O)Nc2cccc(C#Cc3cc(C(=O)N=S4(=O)CCN(C(N)=O)CC4)cnc3N)c2)c1 [Example 18, 1-({[6-Amino-5-({3-[(2-fluoro-5-methylbenzoyl)amino]phenyl}ethynyl)pyridin-3-yl]carbonyl}imino)-1λ^4,4-thiazinane-4-carboxamide 1-oxide]
– | 23 | 19 | Cc1ccoc1C(=O)Nc1cccc(C#Cc2cncc(C(=O)N=S3(=O)CCOCC3)c2)c1 [Example 19, 5-({3-[(3-methyl-2-furoyl)amino]phenyl}ethynyl)-N-(4-oxido-1,4λ^4-oxathian-4-ylidene)nicotinamide]
– | 51 | 31 | Cc1ccoc1C(=O)Nc1cccc(C#Cc2cc(C(=O)N=S3(=O)CCOCC3)cnc2N)c1 [Example 20, 6-amino-5-({3-[(3-methyl-2-furoyl)amino]phenyl}ethynyl)-N-(4-oxido-1,4λ^4-oxathian-4-ylidene)nicotinamide]
– | 24 | – | Cc1ccc(F)c(C(=O)Nc2cccc(C#Cc3cc(C(=O)N=S4(=O)CCOCC4)cnc3N)c2)c1 [Example 21, 6-amino-5-({3-[(2-fluoro-5-methylbenzoyl)amino]phenyl}ethynyl)-N-(4-oxido-1,4λ^4-oxathian-4-ylidene)nicotinamide]
– | – | 17 | Cc1ccc(F)c(NC(=O)c2cccc(C#Cc3cc(C(=O)N=S4(=O)CCOCC4)cnc3N)c2)c1 [Example 22, 6-amino-5-[(3-{[(2-fluoro-5-methylphenyl)amino]carbonyl}phenyl)ethynyl]-N-(4-oxido-1,4λ^4-oxathian-4-ylidene)nicotinamide]
– | 13 | – | Nc1ncc(C(=O)N=S2(=O)CCOCC2)cc1C#Cc1cccc(C(=O)Nc2ccc(Cl)c(C(F)(F)F)c2)c1 [Example 23, 6-amino-5-{[3-({[4-chloro-3-(trifluoromethyl)phenyl]amino}carbonyl)phenyl]ethynyl}-N-(4-oxido-1,4λ^4-oxathian-4-ylidene)nicotinamide]
best activity | 10 | – | CC(C)(C)c1cc(NC(=O)c2cccc(C#Cc3cc(C(=O)N=S4(=O)CCOCC4)cnc3N)c2)no1 [Example 24, 6-amino-5-[(3-{[(5-tert-butylisoxazol-3-yl)amino]carbonyl}phenyl)ethynyl]-N-(4-oxido-1,4λ^4-oxathian-4-ylidene)nicotinamide]
– | 19 | – | COc1cccc(NC(=O)c2cccc(C#Cc3cc(C(=O)N=S4(=O)CCOCC4)cnc3N)c2)c1 [Example 25, 6-amino-5-[(3-{[(3-methoxyphenyl)amino]carbonyl}phenyl)ethynyl]-N-(4-oxido-1,4λ^4-oxathian-4-ylidene)nicotinamide]
